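Briefly, cells in 96-well plates were exposed to five compound concentrations for 48 h, and endpoints were estimated by linear interpolation. Abbreviation: GI50, concentration required for 50% inhibition of growth.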 Activity calls are given as the source filed them. Cut-off read from the data, not from the text of the source: active = GI50 up to about 1.1 µM and inactive = higher.
What was measured:
Test in all cases: growth of human tumour cells (NCI), 48 h
PC-3 = system: PC-3
SK-OV-3 = system: SK-OV-3
Hs-578T = system: Hs-578T
OVCAR-8 = system: OVCAR-8
NCI-H460 = system: NCI-H460
SN12C = system: SN12C
SF-268 = system: SF-268
DU-145 = system: DU-145
Malme-3M = system: Malme-3M
COLO 205 = system: COLO 205
NCI-H522 = system: NCI-H522
CAKI-1 = system: CAKI-1
HT-29 = system: HT-29
MOLT-4 = system: MOLT-4
CCRF-CEM = system: CCRF-CEM
NCI/ADR-RES = system: NCI/ADR-RES
KM12 = system: KM12
IGROV-1 = system: IGROV-1
M14 = system: M14
MDA-N = system: MDA-N
RPMI-8226 = system: RPMI-8226
SNB-19 = system: SNB-19
UACC-62 = system: UACC-62
HCT-116 = system: HCT-116
RXF 393 = system: RXF 393
NCI-H226 = system: NCI-H226
A498 = system: A498
K562 = system: K562
LOX IMVI = system: LOX IMVI
HOP-92 = system: HOP-92
HOP-62 = system: HOP-62
T47D = system: T47D
SF-539 = system: SF-539
SNB-75 = system: SNB-75
SK-MEL-5 = system: SK-MEL-5
HCT-15 = system: HCT-15
NCI-H23 = system: NCI-H23
U-251 = system: U-251
OVCAR-4 = system: OVCAR-4
HCC 2998 = system: HCC 2998
SK-MEL-2 = system: SK-MEL-2
HL-60 = system: HL-60
MCF7 = system: MCF7
SF-295 = system: SF-295
A549 = system: A549
UO-31 = system: UO-31
MDA-MB-435 = system: MDA-MB-435
786-0 = system: 786-0
SW-620 = system: SW-620
SR = system: SR
ACHN = system: ACHN
TK-10 = system: TK-10
SK-MEL-28 = system: SK-MEL-28
UACC-257 = system: UACC-257
EKVX = system: EKVX
OVCAR-3 = system: OVCAR-3
OVCAR-5 = system: OVCAR-5
MDA-MB-231 = system: MDA-MB-231

Cc1nc2cccc([N+](=O)[O-])c2c(NCCCN(C)C)c1C
GI50 (PC-3): 17.8 µM (inactive) | GI50 (SK-OV-3): > 100 µM (inactive) | GI50 (Hs-578T): > 61.1 µM (inactive) | GI50 (OVCAR-8): 36.1 µM (inactive) | GI50 (NCI-H460): 24 µM (inactive) | GI50 (SN12C): 11.5 µM (inactive) | GI50 (SF-268): > 77.3 µM (inactive) | GI50 (DU-145): 78.2 µM (inactive) | GI50 (Malme-3M): 22.2 µM (inactive) | GI50 (COLO 205): 22.3 µM (inactive) | GI50 (NCI-H522): 15.2 µM (inactive) | GI50 (CAKI-1): 32.9 µM (inactive) | GI50 (HT-29): 19.9 µM (inactive) | GI50 (MOLT-4): 20.5 µM (inactive) | GI50 (CCRF-CEM): 21.3 µM (inactive) | GI50 (NCI/ADR-RES): > 100 µM (inactive) | GI50 (KM12): 34.6 µM (inactive) | GI50 (IGROV-1): > 100 µM (inactive) | GI50 (M14): 35.5 µM (inactive) | GI50 (MDA-N): 26.7 µM (inactive) | GI50 (RPMI-8226): 34.8 µM (inactive) | GI50 (SNB-19): > 100 µM (inactive) | GI50 (UACC-62): > 100 µM (inactive) | GI50 (HCT-116): 20.9 µM (inactive) | GI50 (RXF 393): 16.1 µM (inactive) | GI50 (NCI-H226): > 50.6 µM (inactive) | GI50 (A498): 34.8 µM (inactive) | GI50 (K562): 31.7 µM (inactive) | GI50 (LOX IMVI): 84.9 µM (inactive) | GI50 (HOP-92): > 100 µM (inactive) | GI50 (HOP-62): 28.9 µM (inactive) | GI50 (T47D): > 100 µM (inactive) | GI50 (SF-539): 45.4 µM (inactive) | GI50 (SNB-75): 49.7 µM (inactive) | GI50 (SK-MEL-5): 35.6 µM (inactive) | GI50 (HCT-15): 26.5 µM | GI50 (NCI-H23): 28.1 µM (inactive) | GI50 (U-251): > 79.8 µM (inactive) | GI50 (OVCAR-4): 17.3 µM (inactive) | GI50 (HCC 2998): 21.8 µM (inactive) | GI50 (SK-MEL-2): > 51.3 µM (inactive) | GI50 (HL-60): 11 µM (inactive) | GI50 (MCF7): 23 µM (inactive) | GI50 (SF-295): 36.6 µM (inactive) | GI50 (A549): 60.4 µM (inactive) | GI50 (UO-31): > 100 µM (inactive) | GI50 (MDA-MB-435): 71.4 µM (inactive) | GI50 (786-0): > 61.5 µM (inactive) | GI50 (SW-620): 29.4 µM (inactive) | GI50 (SR): > 34.5 µM (inactive) | GI50 (ACHN): 97.3 µM (inactive) | GI50 (TK-10): > 40.9 µM (inactive) | GI50 (SK-MEL-28): > 100 µM (inactive) | GI50 (UACC-257): 23 µM (inactive) | GI50 (EKVX): > 31.6 µM (inactive) | GI50 (OVCAR-3): 26.6 µM (inactive) | GI50 (OVCAR-5): 27 µM (inactive)

CC(C)(Oc1ccc(C(=O)c2ccc(Cl)cc2)cc1Cl)C(=O)N1CCN(CCO)CC1
GI50 (PC-3): 3.93 µM (inactive) | GI50 (SK-OV-3): > 10 µM (inactive) | GI50 (OVCAR-8): > 10 µM (inactive) | GI50 (SN12C): > 10 µM (inactive) | GI50 (DU-145): 7.05 µM (inactive) | GI50 (Malme-3M): 9.42 µM (inactive) | GI50 (COLO 205): > 10 µM (inactive) | GI50 (CAKI-1): > 10 µM (inactive) | GI50 (HT-29): > 10 µM (inactive) | GI50 (MOLT-4): 4.4 µM (inactive) | GI50 (CCRF-CEM): > 10 µM (inactive) | GI50 (KM12): > 10 µM (inactive) | GI50 (IGROV-1): > 10 µM (inactive) | GI50 (M14): > 10 µM (inactive) | GI50 (MDA-N): > 10 µM (inactive) | GI50 (RPMI-8226): 4.51 µM (inactive) | GI50 (UACC-62): > 10 µM (inactive) | GI50 (RXF 393): 6.27 µM (inactive) | GI50 (K562): 2.85 µM (inactive) | GI50 (LOX IMVI): > 10 µM (inactive) | GI50 (HOP-62): > 10 µM (inactive) | GI50 (T47D): 5.85 µM (inactive) | GI50 (SNB-75): > 10 µM (inactive) | GI50 (SK-MEL-5): 3.91 µM (inactive) | GI50 (HCT-15): > 10 µM | GI50 (NCI-H23): 4.24 µM (inactive) | GI50 (HCC 2998): > 10 µM (inactive) | GI50 (HL-60): 3.53 µM (inactive) | GI50 (MCF7): 5.12 µM (inactive) | GI50 (SF-295): 8.59 µM (inactive) | GI50 (A549): > 10 µM (inactive) | GI50 (MDA-MB-231): > 10 µM (inactive) | GI50 (786-0): > 10 µM (inactive) | GI50 (SW-620): > 10 µM (inactive) | GI50 (SR): 2.96 µM (inactive) | GI50 (TK-10): > 10 µM (inactive) | GI50 (SK-MEL-28): > 10 µM (inactive) | GI50 (UACC-257): 3.39 µM (inactive) | GI50 (EKVX): > 10 µM (inactive)

N#Cc1sc2c(c1OC(=O)c1ccc(Cl)cc1Cl)c(=O)n(-c1ccccc1)c(=S)n2-c1ccccc1
GI50 (PC-3): 25.4 µM (inactive) | GI50 (SK-OV-3): 32.7 µM (inactive) | GI50 (Hs-578T): 36.7 µM (inactive) | GI50 (OVCAR-8): 19.9 µM (inactive) | GI50 (NCI-H460): 33.3 µM (inactive) | GI50 (SN12C): 21.8 µM (inactive) | GI50 (SF-268): 29.4 µM (inactive) | GI50 (DU-145): 36.1 µM (inactive) | GI50 (COLO 205): 19.7 µM (inactive) | GI50 (NCI-H522): 1.12 µM (active) | GI50 (CAKI-1): 23.7 µM (inactive) | GI50 (HT-29): 18.2 µM (inactive) | GI50 (MOLT-4): 18.7 µM (inactive) | GI50 (CCRF-CEM): 4.85 µM (inactive) | GI50 (NCI/ADR-RES): 16.8 µM (inactive) | GI50 (KM12): 24 µM (inactive) | GI50 (IGROV-1): 17 µM (inactive) | GI50 (M14): 18.2 µM (inactive) | GI50 (RPMI-8226): 31.7 µM (inactive) | GI50 (SNB-19): 19.8 µM (inactive) | GI50 (UACC-62): 18.4 µM (inactive) | GI50 (HCT-116): 13.4 µM (inactive) | GI50 (RXF 393): 19.8 µM (inactive) | GI50 (NCI-H226): 23.8 µM (inactive) | GI50 (A498): 24.9 µM (inactive) | GI50 (K562): 17.1 µM (inactive) | GI50 (LOX IMVI): 19.2 µM (inactive) | GI50 (HOP-92): 20.2 µM (inactive) | GI50 (HOP-62): 26.4 µM (inactive) | GI50 (T47D): 26.6 µM (inactive) | GI50 (SF-539): 18.2 µM (inactive) | GI50 (SNB-75): 20.8 µM (inactive) | GI50 (SK-MEL-5): 16.6 µM (inactive) | GI50 (HCT-15): 21.5 µM | GI50 (NCI-H23): 18.8 µM (inactive) | GI50 (U-251): 15.4 µM (inactive) | GI50 (OVCAR-4): 21.5 µM (inactive) | GI50 (HCC 2998): 29.2 µM (inactive) | GI50 (HL-60): 19.6 µM (inactive) | GI50 (MCF7): 23 µM (inactive) | GI50 (SF-295): 28.2 µM (inactive) | GI50 (A549): 30.5 µM (inactive) | GI50 (MDA-MB-231): 22.8 µM (inactive) | GI50 (UO-31): 0.13 µM (active) | GI50 (MDA-MB-435): 19.7 µM (inactive) | GI50 (786-0): 26 µM (inactive) | GI50 (SW-620): 24.5 µM (inactive) | GI50 (SR): > 100 µM (inactive) | GI50 (ACHN): 29 µM (inactive) | GI50 (TK-10): 33.6 µM (inactive) | GI50 (SK-MEL-28): > 100 µM (inactive) | GI50 (UACC-257): 71.9 µM (inactive) | GI50 (EKVX): 31.8 µM (inactive) | GI50 (OVCAR-3): 19.2 µM (inactive) | GI50 (OVCAR-5): 50.7 µM (inactive)

COc1ccc(/C=C\c2cc(OC)c(OC)c(OC)c2)cc1OP(=O)(O)O
GI50 (NCI/ADR-RES): 0.000137 µM (active)

From ChEMBL document CHEMBL1201862, “PubChem BioAssay data set” (2004)
